In the data set the test system is Human red blood cells. Put plainly: Hemolytic assay (hemolysis of red blood cells by QS-21/saponin with or without liposomes). In kind it is cell-based. Particulars: 22° C. An excerpt:
Hemolysis of red blood cells was used as a measure both of the relative amount of free QS-21, and of the toxicity of QS-21 under the indicated experimental conditions. Human red blood cells were purchased from the Research Blood Components LLC (Boston, Mass., USA) under a Walter Reed Army institute of Research protocol reviewed by the independent Institutional Review Board, Division of Human Subjects. Erythrocytes were washed with PBS and were quantified by a Beckman Coulter counter model ACT10 (Indianapolis Ind., USA). In each assay of this study, hemolytic activity of QS-21 incubated with or without liposomes was determined in 220 μl volume and each step of the assay was performed at room temperature (22° C.). One hundred microliters of QS-21 dilution was incubated with 100 μl of liposomes, or PBS only, on a Daigger Rocker (Vernon Hills, Ill., USA) for 15 minutes. After mixing the liposomes, 2×10^7 erythrocytes in 20 μl of PBS were added to the mixture and incubated on a Daigger Rocker for an additional 30 minutes. Plates were centrifuged at 800×g for 6 min. Supernatant was transferred to a polystyrene 96-well plate, and absorbance was read at 541 nm. Hemolysis by QS-21 binding to liposomal Chol was expressed as % of maximum hemolysis by free QS-21.
The hemolytic activities of liposome compositions with QS-21 were characterized first by varying QS-21 concentration. […] Red blood cells were added to the mixture of liposome-QS-21, and incubated for 30 minutes. Free QS-21 served as positive control. Cells were centrifuged and the optical density of supernatant was measured at 541 nm to reflect the levels of hemolysis.

For the substance QS-21, the “amount of QS-21 causing maximum hemolysis” value is “approximately 4 μg” (QS-21 pre-incubated with DMPC/DMPG liposomes (5 μmol phospholipids) containing 33.7 mol % Chol); “approximately 4 μg” (QS-21 pre-incubated with DMPC/DMPG liposomes (5 μmol phospholipids) containing 43 mol % Chol); “approximately 2 μg” (free QS-21, no liposomes). The “amount of QS-21 up to which the hemolytic effect was completely blocked” value (QS-21 pre-incubated with DMPC/DMPG liposomes (5 μmol phospholipids) having 55 mol % Chol) was not below 200 µg.

(Values after patent US10434167B2 (priority 2014, dated 2019).)
